From paper PMC9127750, “Structure-based design of CDC42 effector interaction inhibitors for the treatment of cancer” (Cell reports, 2022)

System: WM3248 melanoma cells, 486 antibodies
Assay: Reverse phase protein arrays (RPPA);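 as to RPPA ACC1.R.C: ratio of treated to vehicle (0 µM) normalized linear protein signal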;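 as to RPPA AMPK.a2 pS345.R.V: ratio of treated to vehicle (0 µM) normalized linear protein signal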;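 as to RPPA AMPKa pT172.R.C: ratio of treated to vehicle (0 µM) normalized linear protein signal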;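 as to RPPA ASNS.R.V: ratio of treated to vehicle (0 µM) normalized linear protein signal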
Assay type: cell-based, Human
Details: 5 uM
Source text: Pellets were snap frozen in liquid nitrogen and shipped to MD Anderson Cancer Center core RPPA facility for RPPA analysis (Table S5). Three biological replicates for each sample were generated.
Nomenclatures on the RPPA heatmaps: name_of_antibody.species_of_antibody.status_of_antibody. V - antibody validated; C - validation of antibody in progress; Q - antibody nonspecific; E – under evaluation; antibodies raised in M - mouse, G - goat, R - rabbit, or T - rat.

## CN(C)c1cccc(Nc2cc(-c3ccccc3)nc(C3CCNCC3)n2)c1 [ARN22089, N1,N1-dimethyl-N3-(6-phenyl-2-(piperidin-4-yl)pyrimidin-4-yl)benzene-1,3-diamine]
Average
  RPPA EMA.M.C: 1.019
  RPPA ENY2.M.C: 0.945
  RPPA ER.a.R.V: 1.031
  RPPA ER.a_pS118.R.V: 1.194
  RPPA ERCC1.R.C: 0.974
  RPPA ERCC5.R.C: 0.991
  RPPA ERRalpha.R.V: 1.000
  RPPA EVI1.R.V: 0.976
  RPPA Elk1_pS383.R.C: 1.029
  RPPA Enolase.2.R.V: 1.011
  RPPA EphA2.R.V: 0.963
  RPPA EphA2_pS897.R.C: 0.963
  RPPA Erk5.R.V: 1.061
  RPPA Ets.1.R.V: 0.910
  RPPA FABP5.R.C: 0.807
  RPPA FAK.R.C: 1.005
  RPPA FAK_pY397.R.V: 1.015
  RPPA FANCD2.R.V: 1.011
  RPPA FASN.R.V: 0.986
  RPPA FGF.basic.R.C: 0.990
  RPPA FN14.R.C: 1.084
  RPPA FOXM1.R.V: 1.005
  RPPA FTO.R.V: 0.940
  RPPA Fibronectin.R.V: 0.998
  RPPA FoxO3a_pS318_S321.R.C: 0.976
  RPPA G6PD.R.V: 0.982
  RPPA GATA3.M.V: 0.852
  RPPA GATA6.R.V: 0.999
  RPPA GCLC.R.C: 1.009
  RPPA GCLM.R.V: 0.973
  RPPA GCN5L2.R.V: 1.028
  RPPA GGPS1.M.V: 0.917
  RPPA GRB2.R.V: 1.049
  RPPA GRB7.R.V: 1.025
  RPPA GSK.3a.b.M.V: 0.977
  RPPA GSK.3a.b_pS21_S9.R.V: 0.983
  RPPA Gab2.R.V: 1.019
  RPPA Gli1.R.C: 1.002
  RPPA Gli3.R.C: 0.909
  RPPA Glucocorticoid.Receptor.R.V: 1.019
  RPPA Glutamate.D1.2.R.V: 0.907
  RPPA Glutaminase.R.C: 0.909
  RPPA Granzyme.B.R.V: 1.098
  RPPA Grp75.R.C: 0.983
  RPPA Gys_pS641.R.V: 1.021
  RPPA H2AX_pS139.R.C: 1.019
  RPPA H2AX_pS140.M.C: 0.923
  RPPA HER2.M.V: 0.962
  RPPA HER2_pY1248.R.V: 1.025
  RPPA HER3_pY1289.R.C: 0.983
  RPPA HES1.R.V: 1.187
  RPPA X4E.BP1.R.V: 1.200
  RPPA X4E.BP1_pS65.R.V: 1.011
  RPPA X4E.BP1_pT37_T46.R.V: 1.016
  RPPA X14.3.3.zeta.R.V: 0.987
  RPPA X14.3.3βR.V: 1.006
  RPPA X14.3.3εM.C: 0.962
  RPPA X53BP1.R.V: 0.978
  RPPA b.Actin.R.C: 0.929
  RPPA b.Catenin.R.V: 0.915
  RPPA b.Catenin_pT41_S45.R.V: 1.024
  RPPA c.Abl.R.V: 1.084
  RPPA c.Abl_pY412.R.C: 1.056
  RPPA c.IAP2.R.C: 1.003
  RPPA eEF2.R.C: 0.913
  RPPA eEF2K.R.V: 0.916
  RPPA eIF4E.R.V: 1.118
  RPPA eIF4E_pS209.R.V: 1.025
  RPPA eIF4G.R.C: 1.047
  RPPA level HLA.DQA1.R.V: 0.948
  RPPA level HLA.DR.DP.DQ.DX.R.C: 0.928
  RPPA level HMHA1.R.V: 1.133
  RPPA level HNRNPK.R.V: 0.988
  RPPA level HSP27.M.C: 1.008
  RPPA level HSP27_pS82.R.V: 1.113
  RPPA level HSP60.R.V: 1.017
  RPPA level HSP70.R.C: 1.003
  RPPA level Hexokinase.I.R.C: 0.909
  RPPA level Hexokinase.II.R.V: 0.992
  RPPA level Hif.1αR.C: 1.051
  RPPA level Histone.H3.R.V: 0.963
  RPPA level Histone.H3_pS10.R.V: 0.786
  RPPA level IGF1R_pY1135_Y1136.R.V: 1.035
  RPPA level IGFBP2.R.V: 0.875
  RPPA level IGFBP3.M.V: 0.957
  RPPA level IGFRb.R.C: 1.062
  RPPA level IL.6.R.C: 1.050
  RPPA level IMP3.R.C: 0.997
  RPPA level IR.b.R.C: 1.131
  RPPA level IRF.1.R.V: 1.000
  RPPA level IRF.3.R.V: 1.007
  RPPA level IRS1.R.V: 1.078
  RPPA level IRS2.R.C: 0.971
  RPPA level JAB1.M.C: 0.973
  RPPA level JNK2.R.V: 0.889
  RPPA level JNK_pT183_Y185.R.C: 1.026
  RPPA level Jak2.R.V: 1.011
  RPPA level KAP1.R.V: 0.915
  RPPA level KEAP1.R.V: 0.914
  RPPA level LC3A.B.R.C: 0.914
  RPPA level LCN2.R.V: 1.165
  RPPA level LDHA.R.C: 0.789
  RPPA level LRP6_pS1490.R.V: 1.065
  RPPA level Lasu1.R.V: 0.902
  RPPA level Lck.R.V: 0.925
  RPPA level Lyn.R.V: 0.878
  RPPA level MACC1.R.V: 1.021
  RPPA level MAPK_pT202_Y204.R.C: 1.079
  RPPA level MCT4.R.V: 0.958
  RPPA level MDM2_pS166.R.V: 0.899
  RPPA level MEK1.R.V: 1.584
  RPPA level MEK1_pS217_S221.R.V: 1.125
  RPPA level MERIT40.R.C: 0.975
  RPPA level METTL3.R.V: 0.920
  RPPA level MIF.R.C: 1.010
  RPPA level MIG6.R.V: 1.024
  RPPA level MITF.R.V: 0.967
  RPPA level MLH1.M.V: 0.943
  RPPA level MLKL.R.V: 0.967
  RPPA level MMP2.R.V: 0.995
  RPPA level MMP14.R.V: 0.964
  RPPA level MR1.M.C: 1.033
  RPPA level MRAP.R.C: 1.061
  RPPA level MSH2.R.C: 0.932
  RPPA level MSH6.R.C: 0.925
  RPPA level MSI2.R.C: 1.004
  RPPA level MTCO1.M.V: 0.944
  RPPA level MTSS1.M.C: 0.998
  RPPA level Mcl.1.R.V: 1.076
  RPPA level MelanA.R.C: 1.025
  RPPA level Melanoma.gp100.R.C: 1.061
  RPPA level Merlin.R.C: 0.894
  RPPA level Midkine.R.V: 1.001
  RPPA level Mitofusin.1.R.V: 1.053
  RPPA level Mitofusin.2.R.V: 1.013
  RPPA level mTOR.R.V: 1.016
  RPPA level mTOR_pS2448.R.C: 1.025
  c.Jun_pS73.R.V RPPA level: 0.983
  c.Kit.R.V RPPA level: 0.895
  c.Met_pY1234_Y1235.R.V RPPA level: 1.062
  c.Myc.R.C RPPA level: 1.010
  cGAS.R.V RPPA level: 1.020
  cdc2_pY15.R.C RPPA level: 1.200
B.1
  RPPA A.Raf.R.V: 0.964
  RPPA A.Raf_pS299.R.C: 1.002
  RPPA ACC1.R.C: 1.160
  RPPA ACC_pS79.R.V: 0.974
  RPPA ACSL1.R.V: 1.052
  RPPA ACVRL1.R.C: 1.027
  RPPA ADAR1.M.V: 0.990
  RPPA ALKBH5.R.V: 1.061
  RPPA AMPK.a2_pS345.R.V: 0.982
  RPPA AMPKa.R.C: 1.010
  RPPA AMPKa_pT172.R.C: 0.679
  RPPA ARID1A.R.C: 0.955
  RPPA ASNS.R.V: 1.050
  RPPA ATM.R.V: 1.017
  RPPA ATM_pS1981.R.V: 1.023
  RPPA ATP5A.M.C: 1.186
  RPPA ATP5H.R.V: 1.203
  RPPA ATR.R.V: 1.027
  RPPA ATRX.R.C: 0.816
  RPPA ATR_pS428.R.C: 0.959
